Species: Rattus norvegicus
Assay: DrugMatrix - Regimen: Daily Repeat
Type: toxicity, organism-based, Sprague-Dawley
Design: regimen Daily Repeat, gender Male, age 6-8 weeks
Details: in vivo, po, route oral GAVAGE, vehicle .5 % CMC; for BASOPHIL / EOSINOPHIL / ERYTHROCYTE COUNT / HEMATOCRIT / HEMOGLOBIN / LEUKOCYTE COUNT / LYMPHOCYTE / MEAN CORPUSCULAR HEMOGLOBIN / MEAN CORPUSCULAR HEMOGLOBIN CONCENTRATION / MEAN CORPUSCULAR VOLUME / MONOCYTE / NEUTROPHIL / PLATELET COUNT: tissue Blood; for ALANINE AMINOTRANSFERASE / ALBUMIN / ALKALINE PHOSPHATASE / ASPARTATE AMINOTRANSFERASE / BLOOD UREA NITROGEN / CHLORIDE / CHOLESTEROL / CREATINE PHOSPHOKINASE / CREATININE / GLUCOSE / PHOSPHORUS / POTASSIUM / SODIUM / TOTAL BILIRUBIN / TOTAL PROTEIN: tissue Plasma
[1] = 0 mg/kg, 72 h, dose level Control, time 3 day
[2] = 0 mg/kg, 120 h, dose level Control, time 5 day
[3] = 750 mg/kg, 72 h, dose level Low, time 3 day
[4] = 750 mg/kg, 120 h, dose level Low, time 5 day
[5] = 2000 mg/kg, 72 h, dose level High, time 3 day
[6] = 2000 mg/kg, 120 h, dose level High, time 5 day

SMILES: NCC(=O)O [GLYCINE]
- BASOPHIL [1]: 0%
- EOSINOPHIL [1]: 0%
- ERYTHROCYTE COUNT [1]: 6.34 x10E6/uL
- HEMATOCRIT [1]: 37.62%
- HEMOGLOBIN [1]: 14.82 G/DL
- LEUKOCYTE COUNT [1]: 11.18 x10E3/uL
- LYMPHOCYTE [1]: 87.5%
- MEAN CORPUSCULAR HEMOGLOBIN [1]: 23.48 pg
- MEAN CORPUSCULAR HEMOGLOBIN CONCENTRATION [1]: 39.5 G/DL
- MEAN CORPUSCULAR VOLUME [1]: 59.45 fL
- MONOCYTE [1]: 1.67%
- NEUTROPHIL [1]: 10.83%
- PLATELET COUNT [1]: 1074.83 x10E3/uL
- ALANINE AMINOTRANSFERASE [1]: 36.5 u/L
- ALBUMIN [1]: 3.9 G/DL
- ALKALINE PHOSPHATASE [1]: 370.17 u/L
- ASPARTATE AMINOTRANSFERASE [1]: 63.17 u/L
- BLOOD UREA NITROGEN [1]: 16.83 mg/dL
- CHLORIDE [1]: 99.33 MEQ/L
- CHOLESTEROL [1]: 64.33 mg/dL
- CREATINE PHOSPHOKINASE [1]: 127 u/L
- CREATININE [1]: 0.55 mg/dL
- GLUCOSE [1]: 173.5 mg/dL
- PHOSPHORUS [1]: 10.08 mg/dL
- POTASSIUM [1]: 6.23 MEQ/L
- SODIUM [1]: 143.5 MEQ/L
- TOTAL BILIRUBIN [1]: 0.52 mg/dL
- TOTAL PROTEIN [1]: 6.35 G/DL
- BASOPHIL [2]: 0%
- EOSINOPHIL [2]: 0.17%
- ERYTHROCYTE COUNT [2]: 6.12 x10E6/uL
- HEMATOCRIT [2]: 37.08%
- HEMOGLOBIN [2]: 14.82 G/DL
- LEUKOCYTE COUNT [2]: 11.87 x10E3/uL
- LYMPHOCYTE [2]: 83.33%
- MEAN CORPUSCULAR HEMOGLOBIN [2]: 24.25 pg
- MEAN CORPUSCULAR HEMOGLOBIN CONCENTRATION [2]: 39.97 G/DL
- MEAN CORPUSCULAR VOLUME [2]: 60.65 fL
- MONOCYTE [2]: 1.5%
- NEUTROPHIL [2]: 15%
- PLATELET COUNT [2]: 1042.83 x10E3/uL
- ALANINE AMINOTRANSFERASE [2]: 46 u/L
- ALBUMIN [2]: 3.82 G/DL
- ALKALINE PHOSPHATASE [2]: 369.5 u/L
- ASPARTATE AMINOTRANSFERASE [2]: 65 u/L
- BLOOD UREA NITROGEN [2]: 16.33 mg/dL
- CHLORIDE [2]: 100.67 MEQ/L
- CHOLESTEROL [2]: 57.17 mg/dL
- CREATINE PHOSPHOKINASE [2]: 130 u/L
- CREATININE [2]: 0.53 mg/dL
- GLUCOSE [2]: 163.33 mg/dL
- PHOSPHORUS [2]: 9.53 mg/dL
- POTASSIUM [2]: 6.27 MEQ/L
- SODIUM [2]: 144.83 MEQ/L
- TOTAL BILIRUBIN [2]: 0.55 mg/dL
- TOTAL PROTEIN [2]: 6.32 G/DL
- BASOPHIL [3]: 0%
- EOSINOPHIL [3]: 0%
- ERYTHROCYTE COUNT [3]: 6.2 x10E6/uL
- HEMATOCRIT [3]: 37.37%
- HEMOGLOBIN [3]: 14.17 G/DL
- LEUKOCYTE COUNT [3]: 11.6 x10E3/uL
- LYMPHOCYTE [3]: 90%
- MEAN CORPUSCULAR HEMOGLOBIN [3]: 22.83 pg
- MEAN CORPUSCULAR HEMOGLOBIN CONCENTRATION [3]: 37.97 G/DL
- MEAN CORPUSCULAR VOLUME [3]: 60.17 fL
- MONOCYTE [3]: 0%
- NEUTROPHIL [3]: 10%
- PLATELET COUNT [3]: 1191.67 x10E3/uL
- ALANINE AMINOTRANSFERASE [3]: 28 u/L
- ALBUMIN [3]: 3.4 G/DL
- ALKALINE PHOSPHATASE [3]: 270.33 u/L
- ASPARTATE AMINOTRANSFERASE [3]: 46.67 u/L
- BLOOD UREA NITROGEN [3]: 9 mg/dL
- CHLORIDE [3]: 102.33 MEQ/L
- CHOLESTEROL [3]: 55.33 mg/dL
- CREATINE PHOSPHOKINASE [3]: 104.33 u/L
- CREATININE [3]: 0.4 mg/dL
- GLUCOSE [3]: 165 mg/dL
- PHOSPHORUS [3]: 10.73 mg/dL
- POTASSIUM [3]: 6.07 MEQ/L
- SODIUM [3]: 148 MEQ/L
- TOTAL BILIRUBIN [3]: 0.17 mg/dL
- TOTAL PROTEIN [3]: 5.43 G/DL
- BASOPHIL [4]: 0%
- EOSINOPHIL [4]: 0%
- ERYTHROCYTE COUNT [4]: 6.26 x10E6/uL
- HEMATOCRIT [4]: 38.2%
- HEMOGLOBIN [4]: 15 G/DL
- LEUKOCYTE COUNT [4]: 13 x10E3/uL
- LYMPHOCYTE [4]: 89.67%
- MEAN CORPUSCULAR HEMOGLOBIN [4]: 23.97 pg
- MEAN CORPUSCULAR HEMOGLOBIN CONCENTRATION [4]: 39.27 G/DL
- MEAN CORPUSCULAR VOLUME [4]: 61.1 fL
- MONOCYTE [4]: 0.33%
- NEUTROPHIL [4]: 10%
- PLATELET COUNT [4]: 1041.67 x10E3/uL
- ALANINE AMINOTRANSFERASE [4]: 32 u/L
- ALBUMIN [4]: 3.73 G/DL
- ALKALINE PHOSPHATASE [4]: 311.33 u/L
- ASPARTATE AMINOTRANSFERASE [4]: 55.33 u/L
- BLOOD UREA NITROGEN [4]: 12.33 mg/dL
- CHLORIDE [4]: 99.33 MEQ/L
- CHOLESTEROL [4]: 59.67 mg/dL
- CREATINE PHOSPHOKINASE [4]: 148 u/L
- CREATININE [4]: 0.57 mg/dL
- GLUCOSE [4]: 154 mg/dL
- PHOSPHORUS [4]: 11.67 mg/dL
- POTASSIUM [4]: 5.97 MEQ/L
- SODIUM [4]: 144.33 MEQ/L
- TOTAL BILIRUBIN [4]: 0.33 mg/dL
- TOTAL PROTEIN [4]: 6.07 G/DL
- BASOPHIL [5]: 0%
- EOSINOPHIL [5]: 0%
- ERYTHROCYTE COUNT [5]: 6.16 x10E6/uL
- HEMATOCRIT [5]: 36.47%
- HEMOGLOBIN [5]: 14 G/DL
- LEUKOCYTE COUNT [5]: 12.17 x10E3/uL
- LYMPHOCYTE [5]: 89.67%
- MEAN CORPUSCULAR HEMOGLOBIN [5]: 22.77 pg
- MEAN CORPUSCULAR HEMOGLOBIN CONCENTRATION [5]: 38.4 G/DL
- MEAN CORPUSCULAR VOLUME [5]: 59.23 fL
- MONOCYTE [5]: 1.33%
- NEUTROPHIL [5]: 9%
- PLATELET COUNT [5]: 1124.67 x10E3/uL
- ALANINE AMINOTRANSFERASE [5]: 31.33 u/L
- ALBUMIN [5]: 3.53 G/DL
- ALKALINE PHOSPHATASE [5]: 262.33 u/L
- ASPARTATE AMINOTRANSFERASE [5]: 51.67 u/L
- BLOOD UREA NITROGEN [5]: 12 mg/dL
- CHLORIDE [5]: 100.33 MEQ/L
- CHOLESTEROL [5]: 57.33 mg/dL
- CREATINE PHOSPHOKINASE [5]: 113.33 u/L
- CREATININE [5]: 0.37 mg/dL
- GLUCOSE [5]: 157.67 mg/dL
- PHOSPHORUS [5]: 12.17 mg/dL
- POTASSIUM [5]: 6.6 MEQ/L
- SODIUM [5]: 145.67 MEQ/L
- TOTAL BILIRUBIN [5]: 0.2 mg/dL
- TOTAL PROTEIN [5]: 5.57 G/DL
- BASOPHIL [6]: 0%
- EOSINOPHIL [6]: 0.33%
- ERYTHROCYTE COUNT [6]: 6.21 x10E6/uL
- HEMATOCRIT [6]: 36.87%
- HEMOGLOBIN [6]: 14.97 G/DL
- LEUKOCYTE COUNT [6]: 15.13 x10E3/uL
- LYMPHOCYTE [6]: 88.67%
- MEAN CORPUSCULAR HEMOGLOBIN [6]: 24.1 pg
- MEAN CORPUSCULAR HEMOGLOBIN CONCENTRATION [6]: 40.6 G/DL
- MEAN CORPUSCULAR VOLUME [6]: 59.4 fL
- MONOCYTE [6]: 1.33%
- NEUTROPHIL [6]: 9.67%
- PLATELET COUNT [6]: 1238.67 x10E3/uL
- ALANINE AMINOTRANSFERASE [6]: 33.67 u/L
- ALBUMIN [6]: 3.63 G/DL
- ALKALINE PHOSPHATASE [6]: 237 u/L
- ASPARTATE AMINOTRANSFERASE [6]: 55.67 u/L
- BLOOD UREA NITROGEN [6]: 12.33 mg/dL
- CHLORIDE [6]: 100.67 MEQ/L
- CHOLESTEROL [6]: 62 mg/dL
- CREATINE PHOSPHOKINASE [6]: 118.67 u/L
- CREATININE [6]: 0.5 mg/dL
- GLUCOSE [6]: 159.67 mg/dL
- PHOSPHORUS [6]: 11.77 mg/dL
- POTASSIUM [6]: 6.63 MEQ/L
- SODIUM [6]: 146.67 MEQ/L
- TOTAL BILIRUBIN [6]: 0.27 mg/dL
- TOTAL PROTEIN [6]: 5.93 G/DL

— ChEMBL document CHEMBL3885881, “DrugMatrix”
